Results: patent publication US6555821B1, “Method for analysis of expired gas” (priority 1999, dated 2003)
Several values for one entry are separate records, joined by “and”; a condition that tells them apart may be missing. Identical values can stand only once.

Columns and labels:
[1] = Bubbling tests: alcohol concentration in gas phase over alcohol-water solution, measured by low resolution FT-IR; type: physicochemical; details: for Concentration of ethanol in gas phase / Concentration of methanol in gas phase: 21.0 ± 1.0° C., 1 atm, mean ± SD of 10 spectra
[2] = 25° C., 1 atm; Hine and Mookerjee 1975, Davidovits et al. 1995; cited from earlier work
[3] = Bubbling tests: alcohol concentration in gas phase over alcohol-water solution, measured by low resolution FT-IR; type: physicochemical; details: for Concentration of methanol in gas phase: 21.0 ± 1.0° C., 1 atm, mean ± SD of 10 spectra
Procedure: Vaporous ethanol and methanol mixtures in water were made by bubbling nitrogen gas through a corresponding liquid mixture. The purpose of measuring mixtures of ethanol and methanol was to test the applicability of the instrument for determining more than one alcohol in a gas mixture containing a large amount of water vapor like human exhaled breath. Particularly, the measurements were performed with a large ethanol:methanol ratio in order to investigate whether the instrument is able to determine a low concentration of methanol in the presence of a large amount of ethanol.

## CCO [ethanol]
[1]; 3.17 W-% ethanol in water with methanol in liquid 0.102 w-%
  Concentration of ethanol in gas phase: 295 ± 2 ppm
[1]; 3.17 W-% ethanol in water with methanol in liquid 0.159 w-%
  Concentration of ethanol in gas phase: 314 ± 4 ppm
[1]; 3.17 W-% ethanol in water with methanol in liquid 0.222 w-%
  Concentration of ethanol in gas phase: 298 ± 3 ppm
[1]; 3.17 W-% ethanol in water with methanol in liquid 0.317 w-%
  Concentration of ethanol in gas phase: 304 ± 2 ppm
[1]; 3.17 W-% ethanol in water with methanol in liquid 0.95 w-%
  Concentration of ethanol in gas phase: 296 ± 4 ppm
[1]; 3.17 W-% ethanol in water with methanol in liquid 1.59 w-%
  Concentration of ethanol in gas phase: 303 ± 5 ppm
[1]; 3.17 W-% ethanol in water with methanol in liquid 3.18 w-%
  Concentration of ethanol in gas phase: 300 ± 2 ppm
[1]; 3.17 W-% ethanol in water with methanol in liquid 6.36 w-%
  Concentration of ethanol in gas phase: 293 ± 3 ppm
[1]; 3.17 W-% ethanol in water with methanol in liquid 15.9 w-%
  Concentration of ethanol in gas phase: 289 ± 1 ppm
[1]; 3.17 w-‰ ethanol and 0.159 w-‰ methanol in liquid phase (water), 21±1° C.
  ethanol in the gas phase (FIG. 1 spectrum): 310 ppm
[1]; ethanol in liquid 0.202 w-%, water
  Concentration of ethanol in gas phase: 19.2 ± 0.1 ppm
[1]; ethanol in liquid 0.5 w-%, water
  Concentration of ethanol in gas phase: 45.7 ± 0.3 ppm
[1]; ethanol in liquid 1 w-%, water
  Concentration of ethanol in gas phase: 94 ± 1 ppm
[1]; ethanol in liquid 1.58 w-%, water
  Concentration of ethanol in gas phase: 148 ± 2 ppm
[1]; ethanol in liquid 3.16 w-%, water
  Concentration of ethanol in gas phase: 305 ± 4 ppm
[1]; ethanol in liquid 6.33 w-%, water
  Concentration of ethanol in gas phase: 587 ± 4 ppm
[1]; ethanol in liquid 9.49 w-%, water
  Concentration of ethanol in gas phase: 907 ± 6 ppm
[1]; ethanol in liquid 15.8 w-%, water
  Concentration of ethanol in gas phase: 1466 ± 11 ppm
[1]; ethanol in liquid 31.6 w-%, water
  Concentration of ethanol in gas phase: 2907 ± 4 ppm

## CO [methanol]
[1]; methanol in liquid 0.101 w-%, water
  Concentration of methanol in gas phase: 13 ± 0.2 ppm
[1]; methanol in liquid 0.102 w-% in mixture of water and 3.17 W-% ethanol
  Concentration of methanol in gas phase: 14.2 ± 0.4 ppm
[1]; methanol in liquid 0.159 w-% in mixture of water and 3.17 W-% ethanol
  Concentration of methanol in gas phase: 22.2 ± 0.4 ppm
[1]; methanol in liquid 0.203 w-%, water
  Concentration of methanol in gas phase: 26.9 ± 0.1 ppm
[1]; methanol in liquid 0.301 w-%, water
  Concentration of methanol in gas phase: 41.6 ± 0.3 ppm
[1]; methanol in liquid 0.317 w-% in mixture of water and 3.17 W-% ethanol
  Concentration of methanol in gas phase: 43.4 ± 0.4 ppm
[1]; methanol in liquid 0.501 w-%, water
  Concentration of methanol in gas phase: 61 ± 1 ppm
[1]; methanol in liquid 1.59 w-%, water
  Concentration of methanol in gas phase: 204 ± 2 ppm
[1]; methanol in liquid 3.17 w-%, water
  Concentration of methanol in gas phase: 402 ± 2 ppm
[1]; methanol in liquid 6.34 w-%, water
  Concentration of methanol in gas phase: 805 ± 4 ppm
[1]; methanol in liquid 9.51 w-%, water
  Concentration of methanol in gas phase: 1207 ± 5 ppm
[1]; methanol in liquid 15.9 w-% in mixture of water and 3.17 W-% ethanol
  Concentration of methanol in gas phase: 2006 ± 3 ppm
[1]; methanol in liquid 15.9 w-%, water
  Concentration of methanol in gas phase: 2031 ± 14 ppm
[1]; methanol in liquid 31.7 w-%, water
  Concentration of methanol in gas phase: 4067 ± 28 ppm
[2]
  water-air partition coefficient (literature Henry's law constants): 5260 and 5334
[3]; 0.159 w-‰ methanol and 3.17 w-‰ ethanol in liquid phase (water), 21±1° C.
  methanol in the gas phase (FIG. 1 spectrum): 22.4 ppm
[3]; methanol in liquid 0.222 w-% in mixture of water and 3.17 W-% ethanol
  Concentration of methanol in gas phase: 30.2 ± 0.5 ppm
[3]; methanol in liquid 0.95 w-% in mixture of water and 3.17 W-% ethanol
  Concentration of methanol in gas phase: 120 ± 2 ppm
[3]; methanol in liquid 1.59 w-% in mixture of water and 3.17 W-% ethanol
  Concentration of methanol in gas phase: 201 ± 3 ppm
[3]; methanol in liquid 3.18 w-% in mixture of water and 3.17 W-% ethanol
  Concentration of methanol in gas phase: 402 ± 2 ppm
[3]; methanol in liquid 6.36 w-% in mixture of water and 3.17 W-% ethanol
  Concentration of methanol in gas phase: 806 ± 7 ppm
